Where “and” joins values, the source holds several entries; their conditions need not be identical. Identical values can stand only once. Like-named read-outs stand apart in the source and are kept apart here.
What was measured:
Gastric H+/K+-ATPase = target: T1, Gastric H+/K+-ATPase (Oryctolagus cuniculus, UniProt P27112); assay: Inhibition of H+/K+-ATPase activity (Malachite Green Pi assay); assay type: biochemical, rabbit
T1 construct: Gastric H^+/K^+-ATPase was prepared from rabbit glands; from tissue; host or cells: rabbit gastric glands
Procedure: The H^+/K^+-ATPase inhibition reaction was performed in buffer (50 mM Tris-HCl, 5 mM magnesium chloride, 10 μM valinomycin, pH 6.5) with or without 20 mM potassium chloride (KCl), and inorganic phosphate (Pi) was detected using Malachite Green solution, made from 0.1% malachite green, 1.5% hexaammonium molybdate, and 0.2% Tween-20 in a ratio of 100:25:2 ([Skou, 1982]; [Feng et al., 2011]). Gastric H^+/K^+-ATPase was prepared from rabbit glands, as described previously ([Kondo et al., 2012]; [Arikawa et al., 2012]). The reaction occurred in a 96-well plate with a total volume of 50 µL/well, including buffer, enzyme, ATP, and drug. After 30 min at 37 °C for enzyme stability, ATP was added at 0.2 mM to start the reaction, which was optimized from the titration experiments. The reaction lasted 20 min at 37 °C, followed by the addition of Malachite Green for the colorimetric assay. The enzyme control wells contained the full enzyme system, while the buffer control wells contained only buffer to correct for background values. Absorbance was measured at 620 nm using a plate reader (SpectraMax M5). The inhibition rate was calculated using the following formula, accounting for the enzyme activity in the presence and absence of K^+: Inhibition Rate %=ODwith K+and enzyme,without drug−ODwith K+and enzyme,with drug /ODwith K+and enzyme,without drug−ODwithout K+and enzyme,without drug×100 where “OD with K^+ and enzyme, without drug” is the optical density measured at 620 nm in the presence of K^+ and enzyme, without the tested drug (enzyme control wells); “OD with K^+ and enzyme, with drug” is the optical density measured at 620 nm in the presence of K^+ and enzyme, with the tested drug; and “OD without K^+ and enzyme, without drug” is the optical density measured at 620 nm in the absence of K^+ and enzyme, without the tested drug (buffer control wells).

[1] = tested on: gastric acid secretion in pylorus-ligated rats; assay: Gastric acid inhibition in pylorus-ligated rats; assay type: in vivo; conditions: oral 2 mg/kg, pylorus-ligated rats, relative to vehicle
Procedure: The rats were fasted overnight with ad libitum access to water. Drugs and vehicle were administered orally to rats in a blinded manner. The pylorus was ligated under ether anesthesia within 1 h after drug and vehicle administration, and the abdomen was closed by suturing. At 4 h after pyloric ligation, the rats were sacrificed by CO2 asphyxiation, and the stomach was removed ([Hori et al., 2010]). The gastric contents were collected and centrifuged at 3,000 rpm for 10 min. The volume of each sample was measured, the gastric acid concentration was determined by acid-base titration, and the total acidity was calculated.

T1 sequence (P27112 whole entry): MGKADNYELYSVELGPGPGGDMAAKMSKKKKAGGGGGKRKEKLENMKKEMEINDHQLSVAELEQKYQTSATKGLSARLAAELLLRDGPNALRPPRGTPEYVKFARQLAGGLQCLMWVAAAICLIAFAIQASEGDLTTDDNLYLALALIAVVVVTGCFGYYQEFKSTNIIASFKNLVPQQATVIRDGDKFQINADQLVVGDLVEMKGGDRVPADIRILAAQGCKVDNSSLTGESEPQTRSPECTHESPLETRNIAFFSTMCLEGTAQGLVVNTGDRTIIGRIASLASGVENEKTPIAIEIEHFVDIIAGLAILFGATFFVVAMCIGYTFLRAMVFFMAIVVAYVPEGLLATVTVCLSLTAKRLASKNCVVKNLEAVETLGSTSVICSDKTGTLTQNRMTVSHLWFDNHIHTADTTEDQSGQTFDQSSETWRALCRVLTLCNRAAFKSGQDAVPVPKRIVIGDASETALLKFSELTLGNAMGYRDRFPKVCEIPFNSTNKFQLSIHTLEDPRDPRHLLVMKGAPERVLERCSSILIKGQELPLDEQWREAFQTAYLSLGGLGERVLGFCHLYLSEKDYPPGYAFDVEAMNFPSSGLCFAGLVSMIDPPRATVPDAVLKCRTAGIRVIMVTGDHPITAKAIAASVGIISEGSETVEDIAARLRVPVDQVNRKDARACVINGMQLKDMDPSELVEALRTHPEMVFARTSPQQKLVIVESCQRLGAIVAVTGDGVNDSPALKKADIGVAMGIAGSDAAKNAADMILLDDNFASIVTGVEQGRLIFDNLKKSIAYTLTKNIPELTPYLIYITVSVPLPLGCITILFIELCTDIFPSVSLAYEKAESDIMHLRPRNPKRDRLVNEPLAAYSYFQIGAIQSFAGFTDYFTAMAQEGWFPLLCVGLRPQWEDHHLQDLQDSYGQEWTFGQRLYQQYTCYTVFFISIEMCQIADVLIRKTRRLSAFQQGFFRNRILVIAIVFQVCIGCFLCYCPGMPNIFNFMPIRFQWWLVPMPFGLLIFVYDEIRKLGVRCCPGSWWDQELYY
T1 sequence (P18597 whole entry partner): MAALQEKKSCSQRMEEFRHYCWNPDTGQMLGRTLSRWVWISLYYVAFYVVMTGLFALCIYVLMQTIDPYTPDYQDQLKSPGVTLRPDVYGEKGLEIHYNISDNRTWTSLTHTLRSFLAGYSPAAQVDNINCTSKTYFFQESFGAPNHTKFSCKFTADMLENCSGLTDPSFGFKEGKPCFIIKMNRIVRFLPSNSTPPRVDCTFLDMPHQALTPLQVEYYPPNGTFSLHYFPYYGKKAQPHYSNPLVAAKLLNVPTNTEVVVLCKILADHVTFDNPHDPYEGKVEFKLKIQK

CNCc1cc(-c2ccccc2F)n(S(=O)(=O)c2cccnc2)c1 [vonoprazan, 1-[5-(2-fluorophenyl)-1-(pyridin-3-ylsulfonyl)-1H-pyrrol-3-yl]-N-methylmethanamine]
Inhibitory effect on H+/K+-ATPase in the absence of K+ (Gastric H+/K+-ATPase; absence of K+): No measurable inhibitory effect
IC50 (Gastric H+/K+-ATPase; in the presence of K+ (20 mM KCl), pH 6.5, read-out: IC50, H+/K+-ATPase inhibition): 17 nM and 17.1 nM
IC50 (Gastric H+/K+-ATPase; in the presence of potassium ions, rabbit gastric glands, read-out: IC50 (Figure 7A)): 17.1 nM
Total acidity inhibitory rate (%) [1]: 47%

Source: PMC12446003, “Pharmacological characterization of linaprazan glurate (X842), a novel potassium-competitive acid blocker, in vitro and in vivo” (Frontiers in Pharmacology, 2025)
